The target of the assay is GSPT1 (Homo sapiens, UniProt P15170+Q96SW2). The assay is described as follows: Immunofluorescence assay for GSPT1 degradation in CAL-Si cells. Details: CAL-Si cells were purchased from DSMZ (cat. Number ACC302); host or cells: CAL-Si (CAL-51) cells. Type of assay: cell-based. The following applies: 6 hours treatment. In a few lines:
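CAL-Si cells exposed 6 h to compound serial dilutions (30 μM to 0.1 nM), then fixed and immunostained for GSPT1 with DAPI/phalloidin counterstain. Per-cell mean GSPT1 fluorescence from high-content imaging, normalized to controls; DC50 by non-linear regression.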

The mark [1] stands for this setting: read-out: Code: activity for GSPT1 degradation (DC50).
Setting [2] is: GSPT1 degradation, read-out: DC50.

SMILES strings stand for the structures. Where two headings read alike, the source gives them in different places.

Chain of GSPT1 (P15170 whole entry): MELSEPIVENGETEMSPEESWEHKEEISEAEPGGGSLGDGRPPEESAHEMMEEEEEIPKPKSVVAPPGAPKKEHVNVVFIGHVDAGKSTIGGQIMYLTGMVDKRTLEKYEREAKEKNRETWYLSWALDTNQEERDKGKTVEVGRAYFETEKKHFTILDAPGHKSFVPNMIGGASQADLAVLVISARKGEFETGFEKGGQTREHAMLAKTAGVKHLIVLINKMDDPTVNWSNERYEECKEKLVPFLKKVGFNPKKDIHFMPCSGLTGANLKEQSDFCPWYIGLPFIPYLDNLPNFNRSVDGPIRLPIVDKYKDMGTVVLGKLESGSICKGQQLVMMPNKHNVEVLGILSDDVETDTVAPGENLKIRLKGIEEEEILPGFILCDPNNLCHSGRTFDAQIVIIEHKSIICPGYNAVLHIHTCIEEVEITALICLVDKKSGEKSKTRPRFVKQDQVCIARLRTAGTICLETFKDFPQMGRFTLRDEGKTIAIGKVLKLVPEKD
Chain of GSPT1 (Q96SW2 whole entry): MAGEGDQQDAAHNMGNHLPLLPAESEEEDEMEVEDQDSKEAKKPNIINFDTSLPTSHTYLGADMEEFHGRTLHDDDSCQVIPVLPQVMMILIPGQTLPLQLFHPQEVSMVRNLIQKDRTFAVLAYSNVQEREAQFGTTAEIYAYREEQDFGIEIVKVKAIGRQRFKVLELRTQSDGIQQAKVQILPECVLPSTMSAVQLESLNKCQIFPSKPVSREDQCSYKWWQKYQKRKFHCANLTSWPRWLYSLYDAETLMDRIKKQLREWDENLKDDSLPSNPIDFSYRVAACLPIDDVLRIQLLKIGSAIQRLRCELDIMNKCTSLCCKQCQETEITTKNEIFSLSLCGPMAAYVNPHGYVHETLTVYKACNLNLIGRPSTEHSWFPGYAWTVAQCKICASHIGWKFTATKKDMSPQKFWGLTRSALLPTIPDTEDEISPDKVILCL
Chain of GSPT1 (Q16531 whole entry partner): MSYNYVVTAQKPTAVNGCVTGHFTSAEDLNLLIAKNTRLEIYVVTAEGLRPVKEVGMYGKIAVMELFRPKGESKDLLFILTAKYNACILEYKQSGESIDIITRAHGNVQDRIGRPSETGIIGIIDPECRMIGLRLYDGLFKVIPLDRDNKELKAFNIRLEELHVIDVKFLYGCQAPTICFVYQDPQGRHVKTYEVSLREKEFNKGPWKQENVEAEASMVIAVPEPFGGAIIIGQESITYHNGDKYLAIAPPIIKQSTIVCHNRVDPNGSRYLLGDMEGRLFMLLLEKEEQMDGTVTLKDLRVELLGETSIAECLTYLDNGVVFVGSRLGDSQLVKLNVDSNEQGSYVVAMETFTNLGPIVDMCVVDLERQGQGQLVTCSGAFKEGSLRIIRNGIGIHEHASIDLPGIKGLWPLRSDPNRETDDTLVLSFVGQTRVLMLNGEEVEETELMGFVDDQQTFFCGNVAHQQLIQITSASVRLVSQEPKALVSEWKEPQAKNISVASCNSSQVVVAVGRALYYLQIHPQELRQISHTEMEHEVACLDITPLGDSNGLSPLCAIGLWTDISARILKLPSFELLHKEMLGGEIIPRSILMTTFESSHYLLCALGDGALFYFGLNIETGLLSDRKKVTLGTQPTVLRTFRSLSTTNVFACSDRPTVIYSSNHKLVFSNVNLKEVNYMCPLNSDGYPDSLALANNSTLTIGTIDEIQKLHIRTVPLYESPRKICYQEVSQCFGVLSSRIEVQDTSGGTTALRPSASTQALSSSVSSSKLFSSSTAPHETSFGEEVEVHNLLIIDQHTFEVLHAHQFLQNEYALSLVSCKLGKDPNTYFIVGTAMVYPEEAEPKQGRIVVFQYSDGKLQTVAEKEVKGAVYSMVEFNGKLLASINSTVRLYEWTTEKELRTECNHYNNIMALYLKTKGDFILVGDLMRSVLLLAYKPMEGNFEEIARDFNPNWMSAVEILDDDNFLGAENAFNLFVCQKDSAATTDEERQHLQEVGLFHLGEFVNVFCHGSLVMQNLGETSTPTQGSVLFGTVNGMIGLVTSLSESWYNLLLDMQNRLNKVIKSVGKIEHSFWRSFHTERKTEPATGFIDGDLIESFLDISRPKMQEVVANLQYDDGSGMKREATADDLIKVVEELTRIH

With `Cc1c(Cl)cc(NC(=O)CCc2ccc3c(c2)C(=O)N(C2CCC(=O)NC2=O)C3)cc1CN1CCOCC1` (stereo not shown) [Compound 2], the half-maximal degradation concentration (DC50) was at most 0.03 µM under setting [1] and 0.006 µM under setting [2].
For `Cc1ccc(NC(=O)CCc2ccc3c(c2)C(=O)N(C2CCC(=O)NC2=O)C3)cc1Cl` (stereo not shown) [Compound 1], in that order: at most 0.03 µM and 0.016 µM.

By DC50 is commonly meant the midpoint of the concentration-degradation curve.

The record behind these values is patent publication US20240051937A1, “ISOINDOLINONE AMIDE COMPOUNDS USEFUL TO TREAT DISEASES ASSOCIATED WITH GSPT1” (Monte Rosa Therapeutics, Inc., priority 2021, published 2024).
